Experimental data published in ChEMBL document CHEMBL1201862, “PubChem BioAssay data set” (2004).
Active and inactive are the calls of the source.

Columns and labels:
[1] = inhibitors of Vif binding to APOBEC3G peptide, primary screen, biochemical, TR-FRET, GST-Vif 1-94, biotin-A3G peptide, dose response retest (AID 1117319); assay type: functional;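 note: TR-FRET signal of purified GST-Vif binding a biotinylated A3G peptide; inhibitors lower the FRET signal by blocking Vif and A3G binding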
[2] = THP-1 cell cytotoxicity, dose response, cytotoxicity control for Vif-APOBEC3G degradation inhibitor project, THP-1 cells (AID 1117359); assay type: functional; settings: Human immunodeficiency virus 1, THP-1
[3] = molecular target: Botulinum neurotoxin type F (Clostridium botulinum, UniProt P30996); assay: High-throughput multiplex microsphere dose response for inhibitors of toxin protease, specifically Botulinum neurotoxin light chain F protease, compounds from Cherry Pick 02.; assay type: functional; settings: read-out: EC50_MICROM
Chain of Botulinum neurotoxin type F (P30996 1-436 limits assumed): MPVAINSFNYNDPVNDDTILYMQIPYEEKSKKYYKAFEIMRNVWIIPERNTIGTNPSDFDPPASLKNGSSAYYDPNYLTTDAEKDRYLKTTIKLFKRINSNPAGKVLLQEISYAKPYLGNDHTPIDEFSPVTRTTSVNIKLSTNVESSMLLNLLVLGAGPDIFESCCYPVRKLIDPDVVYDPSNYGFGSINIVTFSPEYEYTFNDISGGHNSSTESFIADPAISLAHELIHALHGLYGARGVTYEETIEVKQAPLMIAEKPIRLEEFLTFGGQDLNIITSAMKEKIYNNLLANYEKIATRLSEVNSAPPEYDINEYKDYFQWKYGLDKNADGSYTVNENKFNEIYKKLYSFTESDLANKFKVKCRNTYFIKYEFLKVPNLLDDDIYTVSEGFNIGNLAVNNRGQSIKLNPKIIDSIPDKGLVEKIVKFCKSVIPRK

[4] = Late stage assay provider results from the probe development effort to identify inhibitors of the Plasmodium falciparum M17 Leucine Aminopeptidase (M17LAP): radiolabel-based cell-based dose response assay to identify compounds that inhibit P. falciparum growth in RBCs Set 2.; assay type: functional
Streptococcus = assay: Group A Streptococcus viability loss, dose response, counter-screen for streptokinase expression inhibitor project, luminescence, BacTiterGlo (AID 1915); assay type: functional, organism-based;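 note: potency for reduction of bacterial viability or growth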
Streptokinase A = molecular target: T1, Streptokinase A (Streptococcus pyogenes serotype M1, UniProt P10520); assay: S. pyogenes streptokinase expression inhibitors, potency, dose response, plasminogen activation absorbance, OD405 (AID 1914); assay type: functional, Streptococcus pyogenes M1 GAS;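 note: secreted streptokinase activity via plasminogen activation per viability signal from cell pellet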
T1 sequence (P10520 whole entry): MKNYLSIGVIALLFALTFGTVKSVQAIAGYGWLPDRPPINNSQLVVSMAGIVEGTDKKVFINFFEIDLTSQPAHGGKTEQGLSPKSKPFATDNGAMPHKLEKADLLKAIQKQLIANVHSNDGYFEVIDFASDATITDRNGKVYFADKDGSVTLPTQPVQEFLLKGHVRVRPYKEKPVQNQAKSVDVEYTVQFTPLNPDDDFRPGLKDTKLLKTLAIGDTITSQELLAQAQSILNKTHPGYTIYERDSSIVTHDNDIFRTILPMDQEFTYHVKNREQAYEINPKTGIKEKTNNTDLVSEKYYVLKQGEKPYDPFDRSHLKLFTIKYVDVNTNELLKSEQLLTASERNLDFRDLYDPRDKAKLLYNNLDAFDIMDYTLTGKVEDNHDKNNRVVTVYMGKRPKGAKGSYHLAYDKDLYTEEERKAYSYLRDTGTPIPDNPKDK

[5] = system: Streptococcus sp. 'group A'; assay: growth inhibition of control SK(-) GAS strain, dose response, counter-screen for streptokinase expression inhibitor project, luminescence, kanamycin, BacTiterGlo, confirmation (AID 1900); assay type: functional, organism-based
[6] = molecular target: T2, Methionyl-tRNA synthetase, putative (Trypanosoma brucei brucei, UniProt Q38C91); assay type: functional, Trypanosoma brucei brucei strain 927/4 GUTat10.1
T2 sequence (Q38C91 whole entry): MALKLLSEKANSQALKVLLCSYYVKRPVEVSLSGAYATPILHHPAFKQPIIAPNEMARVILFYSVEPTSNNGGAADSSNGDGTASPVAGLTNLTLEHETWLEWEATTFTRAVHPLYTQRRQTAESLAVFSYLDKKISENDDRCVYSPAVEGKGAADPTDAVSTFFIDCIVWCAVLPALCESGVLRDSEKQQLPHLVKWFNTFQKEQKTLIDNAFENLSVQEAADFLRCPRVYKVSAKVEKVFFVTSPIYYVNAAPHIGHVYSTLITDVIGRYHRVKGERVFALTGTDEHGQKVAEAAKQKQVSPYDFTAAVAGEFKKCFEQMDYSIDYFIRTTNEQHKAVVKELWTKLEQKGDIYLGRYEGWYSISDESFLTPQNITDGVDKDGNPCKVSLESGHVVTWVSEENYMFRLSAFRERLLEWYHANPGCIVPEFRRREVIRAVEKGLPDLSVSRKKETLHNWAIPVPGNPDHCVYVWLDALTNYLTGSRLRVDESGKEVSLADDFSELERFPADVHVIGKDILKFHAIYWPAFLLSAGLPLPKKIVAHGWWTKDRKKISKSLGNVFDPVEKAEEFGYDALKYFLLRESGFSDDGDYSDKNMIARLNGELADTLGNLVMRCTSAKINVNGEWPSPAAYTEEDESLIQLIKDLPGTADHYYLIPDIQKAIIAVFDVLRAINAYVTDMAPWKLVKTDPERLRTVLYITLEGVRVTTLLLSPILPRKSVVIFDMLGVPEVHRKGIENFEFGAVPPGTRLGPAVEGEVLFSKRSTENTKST

[7] = Counterscreen for inhibitors of Trypanosoma brucei methionyl tRNA synthetase (MetRS): Luminescence-based cell-based high throughput dose response assay to identify compounds that are cytotoxic to Jurkat human T lymphocyte cells.; assay type: functional
[8] = molecular target: T2, Methionyl-tRNA synthetase, putative; assay type: functional, Trypanosoma brucei brucei strain 927/4 GUTat10.1; remark: listed apart in the source
[9] = molecular target: T3, Heat shock factor protein 1 (Mus musculus, UniProt P38532); assay: HSF1 potentiators in luciferase reporter cells, confirmation, cell-based, NIH3T3, luminescence, dose retest (AID 435004); assay type: functional;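 note: stress induced by proteasome inhibitor MG132 added 30 min after compound; luciferase reporter driven by HSF1 response element in NIH3T3 cells; actives raise luminescence as potentiators of the MG132 stress response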
T3 sequence (P38532 whole entry): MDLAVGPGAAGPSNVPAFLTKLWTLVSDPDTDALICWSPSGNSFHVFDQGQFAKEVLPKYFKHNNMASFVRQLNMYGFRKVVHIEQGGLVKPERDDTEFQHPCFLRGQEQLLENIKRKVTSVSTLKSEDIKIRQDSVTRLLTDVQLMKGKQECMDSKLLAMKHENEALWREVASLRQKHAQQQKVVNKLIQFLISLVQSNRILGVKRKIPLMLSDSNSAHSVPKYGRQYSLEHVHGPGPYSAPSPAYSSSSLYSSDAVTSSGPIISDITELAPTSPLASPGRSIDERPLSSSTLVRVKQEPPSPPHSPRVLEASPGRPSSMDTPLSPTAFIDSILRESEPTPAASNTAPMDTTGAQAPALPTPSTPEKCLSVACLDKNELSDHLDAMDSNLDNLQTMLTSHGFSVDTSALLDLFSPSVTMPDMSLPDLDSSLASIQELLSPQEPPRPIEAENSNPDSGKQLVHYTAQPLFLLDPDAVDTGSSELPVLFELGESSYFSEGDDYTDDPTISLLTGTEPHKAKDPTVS

Phospholipase A2 = Phospholipase A2 (Homo sapiens, UniProt P04054); assay type: functional;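 note: confirmatory dose-response counterscreen on phospholipase A2, testing hits that came from an ultra-high-throughput screen for ATG4B inhibitors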
Chain of Phospholipase A2 (P04054 whole entry): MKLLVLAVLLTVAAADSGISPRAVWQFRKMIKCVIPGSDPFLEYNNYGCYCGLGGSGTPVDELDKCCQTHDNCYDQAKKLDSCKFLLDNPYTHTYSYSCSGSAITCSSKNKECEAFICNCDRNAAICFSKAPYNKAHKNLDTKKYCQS

Cysteine protease ATG4B = molecular target: T4, Cysteine protease ATG4B (Homo sapiens, UniProt Q9Y4P1); assay type: functional;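 note: Fluorescence-based dose-response confirmation assay measuring inhibition of ATG4B activity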
T4 sequence (Q9Y4P1 whole entry): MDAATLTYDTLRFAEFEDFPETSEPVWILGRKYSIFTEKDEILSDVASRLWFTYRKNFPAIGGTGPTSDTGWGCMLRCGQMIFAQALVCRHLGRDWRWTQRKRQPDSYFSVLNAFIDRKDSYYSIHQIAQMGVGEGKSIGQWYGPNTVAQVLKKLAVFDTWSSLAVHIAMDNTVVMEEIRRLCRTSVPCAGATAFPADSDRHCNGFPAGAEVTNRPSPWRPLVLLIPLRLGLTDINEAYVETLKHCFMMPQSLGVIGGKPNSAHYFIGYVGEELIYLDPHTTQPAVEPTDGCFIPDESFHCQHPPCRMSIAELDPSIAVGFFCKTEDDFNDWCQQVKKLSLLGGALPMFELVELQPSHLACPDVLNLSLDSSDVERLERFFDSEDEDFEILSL

[10] = HEK293 cell viability, dose response, counter-screen for EBV LMP1 inhibitor project, dry powder, set 2 (AID 624374); assay type: functional
[11] = molecular target: Metabotropic glutamate receptor 3 (Rattus norvegicus, UniProt P31422); assay: mGlu3 NAM potency via calcium readout, dose response, mGlu3 NAM project, TREx293 cells, Galpha15, calcium flux (AID 651840); assay type: functional
Chain of Metabotropic glutamate receptor 3 (P31422 whole entry): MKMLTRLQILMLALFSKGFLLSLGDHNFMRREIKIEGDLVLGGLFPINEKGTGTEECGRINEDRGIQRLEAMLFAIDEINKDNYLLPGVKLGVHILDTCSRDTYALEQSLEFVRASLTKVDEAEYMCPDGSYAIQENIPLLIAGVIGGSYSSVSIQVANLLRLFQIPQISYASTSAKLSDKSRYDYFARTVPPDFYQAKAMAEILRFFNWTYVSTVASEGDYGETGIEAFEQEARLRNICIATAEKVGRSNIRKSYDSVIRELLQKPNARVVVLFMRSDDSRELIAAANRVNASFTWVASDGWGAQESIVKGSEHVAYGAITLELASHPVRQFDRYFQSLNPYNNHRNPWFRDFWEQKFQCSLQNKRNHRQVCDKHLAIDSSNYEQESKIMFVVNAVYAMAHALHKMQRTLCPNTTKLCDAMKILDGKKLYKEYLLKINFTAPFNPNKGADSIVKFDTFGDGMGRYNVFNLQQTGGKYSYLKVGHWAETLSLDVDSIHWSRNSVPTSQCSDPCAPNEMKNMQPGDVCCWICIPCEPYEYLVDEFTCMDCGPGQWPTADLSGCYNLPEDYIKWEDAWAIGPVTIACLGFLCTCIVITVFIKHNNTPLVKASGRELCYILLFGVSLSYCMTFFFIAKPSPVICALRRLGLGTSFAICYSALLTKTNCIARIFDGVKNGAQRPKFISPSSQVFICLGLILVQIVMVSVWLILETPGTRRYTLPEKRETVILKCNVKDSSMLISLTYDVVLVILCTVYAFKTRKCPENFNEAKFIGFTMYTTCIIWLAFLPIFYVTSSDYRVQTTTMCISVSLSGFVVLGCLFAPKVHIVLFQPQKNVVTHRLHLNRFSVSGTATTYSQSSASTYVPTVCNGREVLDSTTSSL

Vero = assay: Vero cell toxicity, dose response, cytotoxicity control, plate reader, cherry-pick samples (AID 687020); assay type: functional, cell-based; settings: Chlorocebus sabaeus
H9c2 = assay: cells; assay type: functional, cell-based; settings: Rattus norvegicus, H9c2, Myocardium;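 note: confirmatory concentration-response retest of ultra-high-throughput screening hits for modulation of myocardial damage; cell death induced by hydrogen peroxide oxidative stress; compound pretreatment for 60 min then peroxide exposure for 2 h; potency is for protecting the cells against peroxide damage rather than for killing them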

With `Cc1cccc2c1NC1(CCCC1)CC2C` (configuration not stated) as the compound, how does the IC50 [1] read?
The IC50 was > 100 µM (active).

What about the CC50 [2] of the same compound?
Its CC50 is 24.6 µM (active).

What about the EC50 [3] of the same compound?
The EC50 was > 20 µM (inactive).

With `O=C(Cc1ccc2ccccc2c1)NO` as the compound, how does the IC50 [4] read?
Its IC50 is 5.8 µM (active).

For `S=C(NCCSCc1ccc(Cl)c(Cl)c1)Nc1ccccc1`, which EC50 (Streptococcus) is on record?
The EC50 was > 150 µM (not active).

What about the EC50 (Streptokinase A) of the same compound?
Its EC50 is 14.4 µM (active).

What about the EC50 [5] of the same compound?
The EC50 was 11.2 µM (active).

And the IC50 [6]?
Its IC50 is 11.1 µM (inactive).

What about the IC50 [7] of the same compound?
The IC50 was 47.9 µM (inactive).

And the IC50 [8]?
Its IC50 is 11.6 µM (inactive).

What about the EC50 [9] of the same compound?
Its EC50 is > 260 µM (inactive).

What about the IC50 (Phospholipase A2) of the same compound?
The IC50 was 3.24 µM (active).

What about the IC50 (Cysteine protease ATG4B) of the same compound?
Its IC50 is 6.67 µM (active).

With `CS(=O)(=O)Nc1ccc2c(c1)[C@@H]1C[C@H](CC(=O)NCC3CC3)O[C@H](CO)[C@@H]1O2` as the compound, how does the AbsAC35 [10] read?
The AbsAC35 was 85.99 µM.

With `COc1ccc(C#Cc2ccc(C(=O)N3CCC[C@@H](O)C3)cc2)cc1` as the compound, how does the IC50 [11] read?
The IC50 was 0.597 µM.

For `COc1ccc(N(CC(=O)NCCSc2ccccc2)S(=O)(=O)c2ccccc2)c(OC)c1`, which AC50 (Vero) is on record?
The AC50 was 38.4 µM (active).

What about the IC50 (H9c2) of the same compound?
Its IC50 is 10.8 µM (active).
